1 compound from PMC9374744, “Structural basis for receptor selectivity and inverse agonism in S1P5 receptors” (Nature Communications, 2022) can be followed below.

Where “and” joins values, the source holds several entries; their conditions need not be identical. Equal values may be shown once.

For one assay, the target named is human S1P5 T79A mutant (Homo sapiens, UniProt Q9H228, T79A). The experiment in a line: BRET-based cAMP Gi signaling assay, S1P5 T79A. Conditions: T79A, Suppl. Fig. 6c.
For the next assay, the target named is human S1P5 V115A mutant (Homo sapiens, UniProt Q9H228, V115A). In words: BRET-based cAMP Gi signaling assay, S1P5 V115A. Particulars: V115A, Suppl. Fig. 6e.
Another assay deals with human WT S1P5 receptor (Homo sapiens, UniProt Q9H228). The experiment in a line: BRET-based cAMP (EPAC biosensor) Gi signaling assay, WT S1P5. Particulars: WT, Suppl. Fig. 6e.
Sequence of human WT S1P5 receptor (Q9H228 whole entry): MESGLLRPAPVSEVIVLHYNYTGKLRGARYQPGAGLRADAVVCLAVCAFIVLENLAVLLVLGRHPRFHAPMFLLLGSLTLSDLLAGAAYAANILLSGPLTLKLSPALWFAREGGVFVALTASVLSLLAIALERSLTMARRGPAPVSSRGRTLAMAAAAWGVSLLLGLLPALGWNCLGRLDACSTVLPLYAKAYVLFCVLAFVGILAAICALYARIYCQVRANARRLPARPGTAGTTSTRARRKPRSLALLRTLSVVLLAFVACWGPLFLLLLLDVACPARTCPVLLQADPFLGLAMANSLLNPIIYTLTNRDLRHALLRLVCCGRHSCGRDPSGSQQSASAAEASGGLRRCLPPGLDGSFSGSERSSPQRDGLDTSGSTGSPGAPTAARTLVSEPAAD

Sequence of human S1P5 T79A mutant (Q9H228 whole entry T79A): as the sequence (Q9H228 whole entry) above, with T79A counted along it
Sequence of human S1P5 V115A mutant (Q9H228 whole entry V115A): as the sequence (Q9H228 whole entry) above, with V115A counted along it

In the case of `CCCCCCCCCCCCC/C=C/[C@@H](O)[C@@H](N)COP(=O)(O)O` [S1P, sphingosine-1-phosphate], the “BRET signal, raw replicates” value on human S1P5 T79A mutant ([S1P] 0.228395 nM) is 0.728 and 0.7297 and 0.7309 and 0.7306 and 0.7448 and 0.7165 and 0.733 and 0.732 and 0.7327; on human S1P5 T79A mutant ([S1P] 0.685185 nM), 0.7302 and 0.7321 and 0.7319 and 0.7287 and 0.7311 and 0.7348 and 0.7332 and 0.7318 and 0.7294; at human S1P5 T79A mutant ([S1P] 2.05556 nM), 0.7333 and 0.7313 and 0.7311 and 0.7385 and 0.7367 and 0.733 and 0.7328 and 0.7316 and 0.7345; at human S1P5 T79A mutant ([S1P] 6.16667 nM), 0.7337 and 0.7364 and 0.7232 and 0.7384 and 0.7383 and 0.7348 and 0.7304 and 0.7359 and 0.7321; on human S1P5 T79A mutant ([S1P] 18.5 nM), 0.7347 (2×) and 0.7375 and 0.7387 and 0.7386 and 0.7311 and 0.7341 and 0.7354 and 0.7312; on human S1P5 T79A mutant ([S1P] 55.5 nM) it was 0.7438 and 0.7423 (2×) and 0.7417 and 0.7457 and 0.7434 and 0.7489 and 0.7415 and 0.7424. Besides, the “BRET signal, raw replicates” value at human S1P5 T79A mutant ([S1P] 185 nM) was 0.7491 (2×) and 0.7494 and 0.7531 and 0.7514 and 0.7551 and 0.7506 and 0.752 and 0.7559; at human S1P5 T79A mutant ([S1P] 781.25 nM) it was 0.7686 and 0.7529 and 0.774 and 0.7668 (2×) and 0.7667 and 0.7673 and 0.7649 and 0.7637; at human S1P5 T79A mutant ([S1P] 3125 nM), 0.7697 and 0.7671 and 0.7674 and 0.7739 and 0.7792 and 0.7768 and 0.7709 (2×) and 0.7684; at human S1P5 T79A mutant ([S1P] 12500 nM) it was 0.7734 and 0.7682 and 0.7706 and 0.7812 and 0.7771 and 0.7806 and 0.7763 and 0.7799 and 0.7701. For the same compound, the “BRET signal, raw replicate readings” value at human S1P5 V115A mutant (S1P 12500 nM) was 0.7675; on human S1P5 V115A mutant (S1P 25000 nM) it was 0.7654 and 0.7708 and 0.7701 and 0.7667 and 0.7652 and 0.763 and 0.7734 and 0.7704 and 0.7743; at human WT S1P5 receptor (S1P 0.685185 nM), 0.7239 and 0.7229 and 0.7227 and 0.7322 and 0.7297 and 0.7339 and 0.7264 and 0.7321 and 0.7345; on human WT S1P5 receptor (S1P 2.05556 nM), 0.7237 and 0.7264 and 0.7244 and 0.734 and 0.7307 and 0.7332 and 0.7317 and 0.7311 and 0.7362; at human WT S1P5 receptor (S1P 6.16667 nM), 0.7266 and 0.7231 and 0.7269 and 0.7291 and 0.734 and 0.731 and 0.7324 and 0.7315 and 0.7331; at human WT S1P5 receptor (S1P 18.5 nM) it was 0.7325 and 0.7286 and 0.7291 and 0.731 and 0.733 and 0.7374 (2×) and 0.7372 and 0.7364. The “BRET signal, raw replicate readings” value on human WT S1P5 receptor (S1P 55.5 nM) was 0.7419 and 0.743 and 0.7446 and 0.7524 and 0.7535 and 0.7545 and 0.7491 and 0.7497 (2×); on human WT S1P5 receptor (S1P 185 nM) it was 0.7589 and 0.7571 and 0.7588 and 0.7688 and 0.7682 and 0.766 and 0.76 and 0.7599 and 0.7596; at human WT S1P5 receptor (S1P 781.25 nM) it was 0.7647 and 0.7661 and 0.7611 and 0.7735 and 0.7751 and 0.7748 and 0.7643 and 0.7625 and 0.7654; on human WT S1P5 receptor (S1P 3125 nM) it was 0.7721 and 0.769 and 0.7694 and 0.7819 and 0.7829 and 0.7848 and 0.7658 and 0.7706 and 0.7596; on human WT S1P5 receptor (S1P 12500 nM) it was 0.7775 and 0.7718 and 0.7733 and 0.7869 and 0.7878 and 0.7756 and 0.7691 and 0.7737 and 0.7605; on human WT S1P5 receptor (S1P 25000 nM), 0.7765 and 0.7709 and 0.7762 and 0.7879 and 0.7898 and 0.785 and 0.7721 and 0.7678 and 0.7681.
